Results taken from ChEMBL document CHEMBL1148797, “Structure-activity relationships in the binding of chemically derivatized CD4 to gp120 from human immunodeficiency virus” (J Med Chem, 2007).
pIC50: −log10 of the molar value.

Test: Inhibition of wild type HIV YU2 gp120 to CD4 binding
Parameters: species or system Human immunodeficiency virus

pIC50	Compound
5.49	CCN1C(=O)C=CC1=O [N-ETHYLMALEIMIDE]
5.45	O=C(O)c1cc(SSc2ccc([N+](=O)[O-])c(C(=O)O)c2)ccc1[N+](=O)[O-]
